Reference: article PMC5923399 (Marine Drugs, 2018)
Like-named read-outs stand apart in the source and are kept apart here. Where a SMILES comes first, the peptide text is derived from it. Bridges are numbered along the chain shown (N, C = ends).

Assays:
GABABR-coupled Cav2.2 = biological target: T1, GABABR-coupled Cav2.2 (Homo sapiens, UniProt O75899+Q9UBS5); assay: cell-based; set-up: species or system human GABABR and rat Cav2.2
T1 construct: expressed in transfected cells; host or cells: HEK293T cells, transient transfection; GABAB subunit plasmids from David J. Adams, University of Wollongong
T1 sequence (Q9UBS5 15-961 limits assumed): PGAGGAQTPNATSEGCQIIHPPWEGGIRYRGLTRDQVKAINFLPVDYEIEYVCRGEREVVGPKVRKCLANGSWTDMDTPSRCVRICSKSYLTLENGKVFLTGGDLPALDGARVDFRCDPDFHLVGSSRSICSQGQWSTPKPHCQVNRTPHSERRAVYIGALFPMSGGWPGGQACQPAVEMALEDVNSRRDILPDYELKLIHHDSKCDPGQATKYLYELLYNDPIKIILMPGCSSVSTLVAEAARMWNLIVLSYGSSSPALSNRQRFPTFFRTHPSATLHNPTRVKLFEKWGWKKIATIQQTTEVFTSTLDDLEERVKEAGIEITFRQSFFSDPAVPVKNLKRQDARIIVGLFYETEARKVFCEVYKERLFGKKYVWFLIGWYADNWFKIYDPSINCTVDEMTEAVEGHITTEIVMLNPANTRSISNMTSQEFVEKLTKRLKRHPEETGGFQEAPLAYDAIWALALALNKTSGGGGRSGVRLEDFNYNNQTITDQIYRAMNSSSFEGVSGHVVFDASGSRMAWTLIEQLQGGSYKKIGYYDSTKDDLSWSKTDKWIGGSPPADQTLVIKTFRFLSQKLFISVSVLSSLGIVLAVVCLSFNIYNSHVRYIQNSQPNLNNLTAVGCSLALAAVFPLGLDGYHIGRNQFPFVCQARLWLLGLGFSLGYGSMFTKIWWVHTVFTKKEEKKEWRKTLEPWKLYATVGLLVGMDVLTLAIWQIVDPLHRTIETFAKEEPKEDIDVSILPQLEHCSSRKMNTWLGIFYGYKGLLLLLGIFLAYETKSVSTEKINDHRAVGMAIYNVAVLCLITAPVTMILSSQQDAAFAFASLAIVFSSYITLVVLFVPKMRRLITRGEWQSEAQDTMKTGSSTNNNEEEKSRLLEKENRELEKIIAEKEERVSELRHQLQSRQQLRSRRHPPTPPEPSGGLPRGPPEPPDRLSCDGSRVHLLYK
T1 sequence (O75899 42-941): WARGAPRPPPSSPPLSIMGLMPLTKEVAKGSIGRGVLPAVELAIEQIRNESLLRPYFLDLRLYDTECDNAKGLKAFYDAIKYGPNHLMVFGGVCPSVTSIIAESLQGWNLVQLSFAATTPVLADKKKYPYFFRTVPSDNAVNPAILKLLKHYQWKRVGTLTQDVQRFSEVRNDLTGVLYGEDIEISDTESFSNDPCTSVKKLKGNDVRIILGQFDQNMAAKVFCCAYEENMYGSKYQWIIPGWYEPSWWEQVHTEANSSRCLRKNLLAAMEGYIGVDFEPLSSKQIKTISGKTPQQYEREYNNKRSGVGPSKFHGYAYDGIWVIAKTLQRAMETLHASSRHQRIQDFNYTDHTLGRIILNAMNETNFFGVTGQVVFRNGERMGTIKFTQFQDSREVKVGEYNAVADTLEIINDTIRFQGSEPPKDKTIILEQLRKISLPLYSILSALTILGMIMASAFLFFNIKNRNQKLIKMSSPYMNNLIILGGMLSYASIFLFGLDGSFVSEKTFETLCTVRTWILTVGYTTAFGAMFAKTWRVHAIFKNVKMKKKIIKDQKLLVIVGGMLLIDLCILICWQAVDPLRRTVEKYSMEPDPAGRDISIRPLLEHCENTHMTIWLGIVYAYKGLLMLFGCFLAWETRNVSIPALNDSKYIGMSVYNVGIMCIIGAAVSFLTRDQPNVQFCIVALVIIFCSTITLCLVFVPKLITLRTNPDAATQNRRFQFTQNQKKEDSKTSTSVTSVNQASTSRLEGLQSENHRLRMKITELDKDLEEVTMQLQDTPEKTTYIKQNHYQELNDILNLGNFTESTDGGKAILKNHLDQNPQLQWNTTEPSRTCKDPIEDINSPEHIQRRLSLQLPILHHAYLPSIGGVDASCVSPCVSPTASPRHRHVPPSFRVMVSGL

α9α10 nAChR [1] = biological target: T2, α9α10 nAChR (Rattus norvegicus, UniProt P43144+Q9JLB5); details: read-out: IC50 α9α10; cited from earlier work
T2 construct: expressed in transfected cells; host or cells: Xenopus oocytes (cRNA injection)
T2 sequence (P43144 26-479 limits assumed): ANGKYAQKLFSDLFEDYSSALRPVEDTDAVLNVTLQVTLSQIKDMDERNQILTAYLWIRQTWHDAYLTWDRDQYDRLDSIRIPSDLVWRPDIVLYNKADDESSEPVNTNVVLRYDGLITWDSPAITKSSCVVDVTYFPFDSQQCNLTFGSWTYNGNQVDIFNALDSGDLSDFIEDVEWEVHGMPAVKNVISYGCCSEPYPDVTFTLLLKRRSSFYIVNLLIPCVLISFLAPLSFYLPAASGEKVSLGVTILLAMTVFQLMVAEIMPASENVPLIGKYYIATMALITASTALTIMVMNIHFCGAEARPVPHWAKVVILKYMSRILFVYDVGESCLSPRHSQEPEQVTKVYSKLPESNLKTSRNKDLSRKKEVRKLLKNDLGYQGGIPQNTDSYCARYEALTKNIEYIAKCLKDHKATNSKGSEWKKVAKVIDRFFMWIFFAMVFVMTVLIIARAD
T2 sequence (Q9JLB5 25-447 limits assumed): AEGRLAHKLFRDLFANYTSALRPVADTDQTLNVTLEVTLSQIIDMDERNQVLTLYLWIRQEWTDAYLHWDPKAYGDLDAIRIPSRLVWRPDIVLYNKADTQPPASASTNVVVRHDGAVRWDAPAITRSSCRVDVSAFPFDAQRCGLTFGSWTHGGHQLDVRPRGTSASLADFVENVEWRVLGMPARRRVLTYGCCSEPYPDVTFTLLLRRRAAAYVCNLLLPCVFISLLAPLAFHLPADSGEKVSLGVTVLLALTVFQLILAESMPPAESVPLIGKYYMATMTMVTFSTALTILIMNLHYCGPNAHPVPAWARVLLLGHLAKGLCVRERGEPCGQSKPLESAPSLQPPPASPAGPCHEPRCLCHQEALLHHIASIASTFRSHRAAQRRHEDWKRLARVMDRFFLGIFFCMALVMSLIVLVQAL

rat α3β2 nAChRs = biological target: T3, rat α3β2 nAChRs (Rattus norvegicus, UniProt P04757+P12390); assay: cell-based
T3 construct: expressed in transfected cells; host or cells: Xenopus oocytes (cRNA injection)
T3 sequence (P04757 26-499 limits assumed): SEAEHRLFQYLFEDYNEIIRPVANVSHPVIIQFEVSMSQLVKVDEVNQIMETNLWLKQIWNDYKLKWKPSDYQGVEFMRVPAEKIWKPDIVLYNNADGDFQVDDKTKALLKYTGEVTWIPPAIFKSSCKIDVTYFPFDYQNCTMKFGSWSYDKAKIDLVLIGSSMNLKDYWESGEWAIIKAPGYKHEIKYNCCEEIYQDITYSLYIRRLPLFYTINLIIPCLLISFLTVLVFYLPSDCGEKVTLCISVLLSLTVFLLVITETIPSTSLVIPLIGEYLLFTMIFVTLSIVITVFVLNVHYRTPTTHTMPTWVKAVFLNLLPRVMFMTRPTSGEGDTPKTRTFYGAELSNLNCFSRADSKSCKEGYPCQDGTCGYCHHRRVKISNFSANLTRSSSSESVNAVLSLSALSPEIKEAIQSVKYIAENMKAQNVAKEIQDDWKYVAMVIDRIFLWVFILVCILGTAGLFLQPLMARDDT
T3 sequence (P12390 25-500 limits assumed): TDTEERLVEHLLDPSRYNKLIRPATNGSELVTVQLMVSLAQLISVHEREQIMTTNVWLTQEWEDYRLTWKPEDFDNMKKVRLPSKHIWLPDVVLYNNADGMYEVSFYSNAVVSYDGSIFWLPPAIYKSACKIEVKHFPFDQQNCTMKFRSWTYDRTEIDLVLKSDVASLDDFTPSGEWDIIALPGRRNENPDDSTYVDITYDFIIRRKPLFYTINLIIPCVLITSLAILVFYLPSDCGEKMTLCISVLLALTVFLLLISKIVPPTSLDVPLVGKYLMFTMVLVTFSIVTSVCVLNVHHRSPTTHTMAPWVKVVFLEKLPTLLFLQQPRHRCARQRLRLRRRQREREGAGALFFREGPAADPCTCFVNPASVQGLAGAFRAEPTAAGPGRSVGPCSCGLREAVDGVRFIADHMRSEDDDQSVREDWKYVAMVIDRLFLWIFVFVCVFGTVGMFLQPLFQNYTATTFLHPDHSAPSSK

α2β2 nAChR = biological target: T4, α2β2 nAChR (Rattus norvegicus, UniProt P12389+P12390); assay: cell-based
T4 construct: expressed in transfected cells; host or cells: Xenopus oocytes (cRNA injection)
T4 sequence (P12389 28-511 limits assumed): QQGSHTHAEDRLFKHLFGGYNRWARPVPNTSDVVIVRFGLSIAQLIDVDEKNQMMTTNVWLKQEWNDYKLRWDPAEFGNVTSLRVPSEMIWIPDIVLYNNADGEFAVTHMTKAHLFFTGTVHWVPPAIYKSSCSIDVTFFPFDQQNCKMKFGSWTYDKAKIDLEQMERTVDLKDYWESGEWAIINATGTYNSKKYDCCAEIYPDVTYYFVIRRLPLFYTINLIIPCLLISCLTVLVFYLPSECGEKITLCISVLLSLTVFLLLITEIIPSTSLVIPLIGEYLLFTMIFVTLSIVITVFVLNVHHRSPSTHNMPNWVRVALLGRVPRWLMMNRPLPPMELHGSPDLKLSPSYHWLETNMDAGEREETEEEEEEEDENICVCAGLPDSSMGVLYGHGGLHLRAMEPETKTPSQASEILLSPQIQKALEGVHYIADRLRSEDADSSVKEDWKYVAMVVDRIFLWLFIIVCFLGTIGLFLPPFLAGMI
T4 sequence (P12390 25-500 limits assumed): as the sequence (P12390 25-500 limits assumed) above

α2β4 nAChR = biological target: T5, α2β4 nAChR (Rattus norvegicus, UniProt P12389+P12392); assay: cell-based
T5 construct: expressed in transfected cells; host or cells: Xenopus oocytes (cRNA injection)
T5 sequence (P12389 28-511 limits assumed): as the sequence (P12389 28-511 limits assumed) above
T5 sequence (P12392 21-495 limits assumed): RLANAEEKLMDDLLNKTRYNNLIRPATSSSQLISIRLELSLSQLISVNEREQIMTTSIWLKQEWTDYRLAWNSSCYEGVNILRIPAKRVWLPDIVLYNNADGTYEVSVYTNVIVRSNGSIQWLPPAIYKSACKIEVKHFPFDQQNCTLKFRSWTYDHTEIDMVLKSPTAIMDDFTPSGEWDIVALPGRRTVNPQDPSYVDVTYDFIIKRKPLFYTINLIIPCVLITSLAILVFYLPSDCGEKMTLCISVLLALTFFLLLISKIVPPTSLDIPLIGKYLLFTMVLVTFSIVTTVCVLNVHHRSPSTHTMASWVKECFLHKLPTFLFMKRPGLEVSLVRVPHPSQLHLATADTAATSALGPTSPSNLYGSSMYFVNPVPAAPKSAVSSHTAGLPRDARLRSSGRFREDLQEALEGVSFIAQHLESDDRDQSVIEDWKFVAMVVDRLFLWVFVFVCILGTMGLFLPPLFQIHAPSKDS

α4β4 nAChR = biological target: T6, α4β4 nAChR (Rattus norvegicus, UniProt P09483+P12392); assay: cell-based
T6 construct: expressed in transfected cells; host or cells: Xenopus oocytes (cRNA injection)

α7 nAChR = biological target: T7, α7 nAChR (Rattus norvegicus, UniProt Q05941); assay: cell-based
T7 construct: expressed in transfected cells; host or cells: Xenopus oocytes (cRNA injection)

α4β2 nAChR = biological target: T8, α4β2 nAChR (Rattus norvegicus, UniProt P09483+P12390); assay: cell-based
T8 construct: expressed in transfected cells; host or cells: Xenopus oocytes (cRNA injection)

α3β4 nAChR = biological target: T9, α3β4 nAChR (Rattus norvegicus, UniProt P04757+P12392); assay: cell-based
T9 construct: expressed in transfected cells; host or cells: Xenopus oocytes (cRNA injection)
T9 sequence (P04757 26-499 limits assumed): as the sequence (P04757 26-499 limits assumed) above
T9 sequence (P12392 21-495 limits assumed): as the sequence (P12392 21-495 limits assumed) above

α9α10 nAChR [2] = biological target: T2, α9α10 nAChR; assay: cell-based

Row | SMILES | IC50 (GABABR-coupled Cav2.2) | IC50 (α9α10 nAChR [1]) | IC50 (rat α3β2 nAChRs) | IC50 (α2β2 nAChR) | selectivity index (SI) (rat α3β2 nAChRs) | IC50 (α2β4 nAChR) | IC50 (α4β4 nAChR) | IC50 (α7 nAChR) | IC50 (α4β2 nAChR) | IC50 (α3β4 nAChR) | inhibition at 10 µM (GABABR-coupled Cav2.2; HEK-293T, read-out: inhibition of peak current amplitude, SEM) | IC50 (α9α10 nAChR [2])
1 | CC[C@H](C)[C@@H]1NC(=O)[C@H](CCC(=O)O)NC(=O)[C@@H]2CCCN2C(=O)[C@H](Cc2cnc[nH]2)NC(=O)[C@H](CC(=O)O)NC(=O)[C@H](Cc2ccc(O)cc2)NC(=O)[C@H](CC(N)=O)NC(=O)[C@@H]2CSSC[C@H](NC(=O)CN)C(=O)N[C@@H](CSSC[C@@H](C(N)=O)NC1=O)C(=O)N[C@@H](CO)C(=O)N[C@@H](CC(=O)O)C(=O)N1CCC[C@H]1C(=O)N[C@@H](CCCNC(=N)N)C(=O)N2 [Vc1.1, reference compound] | 0.0024 µM | – | – | – | – | – | – | – | – | – | – | –
2 | CC[C@H](C)[C@@H]1NC(=O)[C@H](Cc2cnc[nH]2)NC(=O)[C@@H]2CCCN2C(=O)[C@H](CC(N)=O)NC(=O)[C@H](CC(N)=O)NC(=O)[C@H](C(C)C)NC(=O)[C@H](CC(N)=O)NC(=O)[C@@H]2CSSC[C@H](NC(=O)CN)C(=O)N[C@@H](CSSC[C@@H](C(N)=O)NC1=O)C(=O)N[C@@H](CO)C(=O)N[C@@H](Cc1cnc[nH]1)C(=O)N1CCC[C@H]1C(=O)N[C@@H](C)C(=O)N2 [RegIIA, reference compound] (H-GCCSHPACNVNNPHIC-NH2; disulfide 2-8, 3-16) | – | > 1 µM | 0.0345 µM | – | – | – | – | – | – | – | – | –
3 | C[C@@H]1NC(=O)[C@@H]2CCCN2C(=O)[C@H](Cc2c[nH]cn2)NC(=O)[C@H](CO)NC(=O)[C@@H]2CSSC[C@@H](C(N)=O)NC(=O)[C@H](Cc3ccccc3)NC(=O)[C@H](Cc3ccc(O)cc3)NC(=O)[C@@H]3CCCN3C(=O)[C@H](CC(N)=O)NC(=O)[C@H](CC(N)=O)NC(=O)CNC(=O)[C@H](CO)NC(=O)[C@H](CSSC[C@H](NC(=O)CN)C(=O)N2)NC1=O [Lt1.3-II] (H-GCCSHPACSGNNPYFC-NH2; disulfide 2-8, 3-16) | > 10 µM | – | 0.0448 µM | > 10 µM | > 200 | > 10 µM | > 10 µM | > 10 µM | > 10 µM | > 10 µM | 3.2 ± 1.8% | > 10 µM
